Assay results: ChEMBL document CHEMBL1201862, “PubChem BioAssay data set” (2004)
Activity calls are given as the source filed them.

What was measured:
[1] = HGIII-sPLA2 enzyme inhibition potency – biochemical, QFRET, IC50, dose response (AID 743457);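 further: green fluorescence rise as the enzyme cleaves BODIPY PC-A2 in liposomes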
[2] = viability loss in HeLa cells – cytotoxicity control for MgcRacGAP inhibitor project, dose response (AID 624300); format: functional
fMet-Leu-Phe receptor = fMet-Leu-Phe receptor (Homo sapiens, UniProt P21462); assay: formyl peptide receptor binders – dose response (AID 519); format: functional
cells [3] = assay: cells
Major prion protein = Major prion protein (Homo sapiens, UniProt P04156); format: functional, cell-based
[4] = biological target: T1, Nuclear receptor subfamily 0 group B member 1 (Homo sapiens, UniProt P51843); format: functional, cell-based;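 further: HEK293T cells transfected with SF-1 and DAX-1 plus StAR promoter luciferase reporter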
T1 sequence (P51843 whole entry): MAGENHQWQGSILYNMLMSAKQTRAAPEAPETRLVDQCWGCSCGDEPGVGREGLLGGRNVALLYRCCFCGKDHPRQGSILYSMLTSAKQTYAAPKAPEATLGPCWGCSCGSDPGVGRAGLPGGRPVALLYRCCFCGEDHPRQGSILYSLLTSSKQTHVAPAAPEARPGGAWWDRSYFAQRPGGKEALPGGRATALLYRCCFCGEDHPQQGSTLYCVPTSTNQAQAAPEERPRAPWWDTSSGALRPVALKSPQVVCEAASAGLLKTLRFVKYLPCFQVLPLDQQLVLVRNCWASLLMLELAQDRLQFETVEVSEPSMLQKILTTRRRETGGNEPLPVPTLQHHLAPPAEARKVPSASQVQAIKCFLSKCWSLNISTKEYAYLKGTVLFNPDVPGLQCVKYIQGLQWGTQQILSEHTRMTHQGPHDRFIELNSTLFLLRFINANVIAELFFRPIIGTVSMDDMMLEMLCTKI

cells [5] = format: functional, cell-based
[6] = viability loss in HEK293T cells – cell-based, cherry-picks, cytotoxicity control for HIV Vif inhibitor project, dose response (AID 652208); format: functional
[7] = biological target: T2, Oxysterols receptor LXR-beta (Homo sapiens, UniProt P55055); format: functional, cell-based
T2 sequence (P55055 whole entry): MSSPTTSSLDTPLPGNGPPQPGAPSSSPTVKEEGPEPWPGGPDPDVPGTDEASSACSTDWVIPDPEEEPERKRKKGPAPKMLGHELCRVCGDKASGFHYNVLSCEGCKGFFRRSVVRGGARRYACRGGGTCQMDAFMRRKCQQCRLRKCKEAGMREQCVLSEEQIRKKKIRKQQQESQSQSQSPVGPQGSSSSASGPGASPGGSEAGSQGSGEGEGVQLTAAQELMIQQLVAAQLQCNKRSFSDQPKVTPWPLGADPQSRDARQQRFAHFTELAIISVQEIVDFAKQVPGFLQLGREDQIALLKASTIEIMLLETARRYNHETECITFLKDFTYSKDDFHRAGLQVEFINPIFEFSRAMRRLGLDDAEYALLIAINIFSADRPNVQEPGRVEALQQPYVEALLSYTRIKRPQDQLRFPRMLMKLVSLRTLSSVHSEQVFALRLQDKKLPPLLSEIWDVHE

[8] = biological target: T2, Oxysterols receptor LXR-beta; format: functional, cell-based; remark: listed apart in the source
cells [9] = assay: cells; remark: listed apart in the source
[10] = biological target: T3, Sentrin-specific protease 8 (Homo sapiens, UniProt Q96LD8); format: functional
T3 sequence (Q96LD8 whole entry): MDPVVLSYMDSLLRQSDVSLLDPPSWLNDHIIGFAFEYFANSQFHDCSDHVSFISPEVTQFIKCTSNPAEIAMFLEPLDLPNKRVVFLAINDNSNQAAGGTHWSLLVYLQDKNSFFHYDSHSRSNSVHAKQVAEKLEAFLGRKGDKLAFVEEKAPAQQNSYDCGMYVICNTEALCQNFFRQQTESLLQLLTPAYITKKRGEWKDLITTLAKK

[11] = biological target: T4, Polyadenylate-binding protein 1 (Homo sapiens, UniProt P11940); assay: MLLE domain peptide-binding blockers, IC50 – biochemical, fluorescence polarization, FITC-PAM2 peptide, dose response (AID 602259); format: functional; settings: read-out: IC50_Mean
[12] = biological target: T3, Sentrin-specific protease 8; format: functional; remark: listed apart in the source
[13] = biological target: T4, Polyadenylate-binding protein 1; assay: MLLE binding blockers, Cy5 peptide tracer – biochemical, fluorescence polarization, Cy5-PAM2 peptide, secondary, miRNA deadenylation inhibitor project, dose response (AID 602260); format: functional; settings: read-out: IC50_Mean
Genome polyprotein = Genome polyprotein (dengue virus type 2, UniProt P29990); assay: flavivirus cap methylation enzyme inhibition – biochemical, confirmation dose response, primary screen (AID 588689); format: functional
[14] = biological target: DNA repair protein RAD52 homolog (Homo sapiens, UniProt P43351); format: functional, biochemical
[15] = biological target: T5, DNA repair and recombination protein RAD54-like (Homo sapiens, UniProt Q92698); assay: RAD54 Holliday junction migration blockers – biochemical, fluorescence, cherry-picked samples, dose series, confirmation (AID 651657); format: functional
T5 sequence (Q92698 whole entry): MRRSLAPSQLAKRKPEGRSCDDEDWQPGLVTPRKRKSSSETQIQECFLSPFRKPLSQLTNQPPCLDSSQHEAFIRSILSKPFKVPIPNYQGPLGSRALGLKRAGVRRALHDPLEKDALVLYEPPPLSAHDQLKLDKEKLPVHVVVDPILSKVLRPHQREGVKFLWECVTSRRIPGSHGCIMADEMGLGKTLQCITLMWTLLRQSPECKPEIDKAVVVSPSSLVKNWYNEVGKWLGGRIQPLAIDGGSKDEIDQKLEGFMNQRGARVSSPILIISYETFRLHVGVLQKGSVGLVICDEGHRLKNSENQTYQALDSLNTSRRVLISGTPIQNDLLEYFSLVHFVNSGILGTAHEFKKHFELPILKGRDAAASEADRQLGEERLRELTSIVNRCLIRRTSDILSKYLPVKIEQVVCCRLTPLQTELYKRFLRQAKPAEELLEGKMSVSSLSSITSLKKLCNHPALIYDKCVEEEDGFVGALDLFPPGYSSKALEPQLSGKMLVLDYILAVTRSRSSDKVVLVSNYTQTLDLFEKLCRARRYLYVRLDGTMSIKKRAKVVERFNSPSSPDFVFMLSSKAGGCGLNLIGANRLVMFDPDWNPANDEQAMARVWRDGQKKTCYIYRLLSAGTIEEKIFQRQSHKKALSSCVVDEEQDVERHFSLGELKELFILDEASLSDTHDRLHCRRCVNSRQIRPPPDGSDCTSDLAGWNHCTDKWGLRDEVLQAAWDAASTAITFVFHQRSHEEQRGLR

[16] = biological target: Arf-GAP with SH3 domain, ANK repeat and PH domain-containing protein 1 (Homo sapiens, UniProt Q9ULH1); format: functional;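 further: biochemical fluorescence polarization dose–response screen measuring inhibition of ASAP1; ASAP1 GAP domain stimulating GTP hydrolysis by truncated human ARF1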
Prothrombin = Prothrombin (Bos taurus, UniProt P00735); assay: thrombin protease inhibitors – biochemical, fluorescence polarization, uHTS hits, dose response (AID 602369); format: functional
[17] = Luminescence Cell-Based Dose Retest to Confirm Inhibitors of Cancer Stem Cells. [Related pubchem assays (depositor defined):AID2717, AID2721]; format: functional; settings: Homo sapiens
[18] = biological target: 72 kDa type IV collagenase (Homo sapiens, UniProt P08253); assay: Dose Response validation of uHTS RPN11 inhibitor hits using a MMP-2 Fluorescence assay.; format: functional
[19] = biological target: 26S proteasome non-ATPase regulatory subunit 14 (Homo sapiens, UniProt O00487); assay: inhibition of proteasome subunit RPN11 – biochemical, fluorescence polarization, uHTS hits, confirmation (AID 602368); format: functional
INS1 = assay: INS-1E survival protection against cytokine death – cell-based, luminescence, retest, dose response (AID 449756); format: functional; settings: Rattus norvegicus;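 further: cell death triggered by IL-1 beta plus TNF-alpha plus IFN-gamma mixture; protective hits raise ATP signal compared with cytokine alone wells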
[20] = Luminescence Cell-Based Dose Response HTS to Identify Inhibitors of 5'UTR Stem-Loop Driven Prion Protein mRNA Translation in H4 Neuroglioblastoma Cells. [Related pubchem assays: 1827 (Project Summary), 1813 (Primary HTS)]; format: functional
[21] = general cell-killing toxicity readout – plate reader, dry powder samples, cytotoxicity control for PAX8 inhibitor project, dose response (AID 743021); format: functional, cell-based
[22] = IGROV1 cell killing – plate reader, dry powder samples, PAX8 inhibitor project, dose response (AID 743043); format: functional, cell-based; settings: IGROV-1
[23] = OVCAR8 cell viability loss – plate reader, dry powder samples, PAX8 project, dose response (AID 743197); format: functional, cell-based; settings: OVCAR-8
Paired box protein Pax-8 = Paired box protein Pax-8 (Homo sapiens, UniProt Q06710); assay: PAX8 transcriptional activity inhibition in RMG-I – RMG-I cells, luciferase, cherry-pick, dose response (AID 687027); format: functional, cell-based;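 further: luciferase reporter driven by Pax8 target thyroperoxidase promoter measured by SteadyGlo luminescence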
[24] = general mammalian cell viability loss – activator set, cherry-pick, cytotoxicity control for miR-122 modulator project, dose response (AID 720690); format: functional, cell-based;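 further: HEK293T human cells scored for general mammalian cytotoxicity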
[25] = biological target: 1-phosphatidylinositol 4,5-bisphosphate phosphodiesterase beta-3 (Homo sapiens, UniProt Q01970); assay: Fluorescence-based biochemical high throughput dose response assay to identify inhibitors of phospholipase C isozymes (PLC-B3).
[26] = biological target: 1-phosphatidylinositol 4,5-bisphosphate phosphodiesterase gamma-1 (Homo sapiens, UniProt P19174); assay: Counterscreen for inhibitors of phospholipase C isozymes (PLC-B3): Fluorescence-based biochemical high throughput dose response assay to identify inhibitors of phospholipase C isozymes (PLC-gamma1).
[27] = anti-trypanosomal activity in BESM host cells – imaging, CA-I/72 strain, bovine embryo skeletal muscle, dry powder, dose response (AID 651885); format: functional, cell-based
[28] = Trypanosoma cruzi growth suppression in host cells – NIH3T3 host cells, beta-gal luminescence, confirmation (AID 2044); format: functional, cell-based;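 further: intracellular parasites grown in NIH/3T3 mouse fibroblasts as host cells; luminescent beta-galactosidase reporter signal from transgenic T. cruzi replicating inside host cells; inhibitors lower the luminescence signal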
[29] = viability of PTEN-deleted HCT116 cells – cell-based, HCT116 PTEN knockout, dose response (AID 1047); format: functional;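 further: HCT116 colon tumor cells with PTEN knocked out; cells exposed to compound for 60 hours before readout; potency for loss of cell viability measured by luminescence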
[30] = NIH3T3 cell viability loss – ATP luminescence, mouse fibroblasts, counter-screen, dose response (AID 2010); format: functional, cell-based;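 further: cells exposed to compound for about 90 hours before reading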
[31] = viability of HCT116 lacking mutant beta-catenin – cell-based, human colon tumor, dose response (AID 1045); format: functional;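 further: HCT116 colon tumor cells with beta catenin knocked out; cells exposed to compound for 60 hours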

Structure (SMILES): COc1ccccc1NC(=O)NNC(=O)c1ccc2ccccc2c1O
- IC50 [1]: > 122 µM (inactive)
- CC50 [2]: 100 µM (active)

Structure (SMILES): COc1ccc(-c2nc(-c3ccc(Br)o3)no2)cc1OC
- Ki (fMet-Leu-Phe receptor): > 66.7 µM (inactive)

Structure (SMILES): CCc1nc(SCC(=O)OC(C)C)c2ccccc2n1
- IC50 (cells [3]): > 138 µM (inactive)
- IC50 (Major prion protein): 2.38 µM (active)

Structure (SMILES): CCCCN1C(C)=CC(=C2C(=O)c3ccccc3C2=O)C=C1C
- IC50 [4]: > 67.5 µM (inactive)
- IC50 (cells [5]): > 67.5 µM (inactive)

Structure (SMILES): CCOc1cccc(C(=O)Nc2ccc3oc(Cc4ccc(Cl)cc4)nc3c2)c1
- AC50 [6]: > 52 µM (inactive)

Structure (SMILES): Cn1c(SCc2ccccc2F)nc2cccnc21
- EC50 [7]: > 67.5 µM (inactive)

Structure (SMILES): Oc1cc(-c2ccccc2)nc(N2CCN(Cc3ccccc3)CC2)n1
- Ki (fMet-Leu-Phe receptor): > 66.7 µM (inactive)

Structure (SMILES): Cc1ccc(CNC2=Nc3ccccc3CS2)cc1
- EC50 [8]: > 67.5 µM (inactive)
- EC50 (cells [9]): > 67.5 µM (inactive)

Structure (SMILES): O=C(COc1ccc2ccccc2c1Br)NC(=S)Nc1cccc(CO)c1
- IC50 (cells [3]): 98.9 µM (inactive)
- IC50 (Major prion protein): 9.99 µM (active)

Structure (SMILES): CC(C)n1nc(C(=O)Nc2ccc(-n3cnnn3)cc2)c2ccccc2c1=O
- AC50 [6]: > 52 µM (inactive)

Structure (SMILES): Oc1ccc(CN2CCCCC2)nc1O
- IC50 [10]: 3.73 µM (active)
- IC50 [11]: 57.9 µM (inactive)
- IC50 [12]: 15.5 µM (active)
- IC50 [13]: > 66 µM (inactive)
- IC50 (Genome polyprotein): 64.9 µM (active)

Structure (SMILES): CN(C)CCNC(=O)c1cccc(-c2cnc3c(NC=O)cc(-c4ccccc4F)cn23)c1
- AC50 [14]: 3.69 µM (active)
- AC50 [15]: 21.7 µM (active)

Structure (SMILES): O=C(N/N=C/c1cc(Cl)ccc1O)c1ccc(Br)cc1
- IC50 [16]: 21.3 µM (inactive)
- IC50 (Prothrombin): 63.2 µM (active)
- AC50 [17]: 1.09 µM (active)
- IC50 [18]: 10.3 µM (active)
- IC50 [19]: 12.7 µM (active)
- AC50 (INS1): 773 nM (active)

Structure (SMILES): O=C(N/N=C/c1cccs1)c1[nH]nc2c1CCC2
- EC50 [20]: 11 µM (inconclusive)
- EC50 [7]: > 67.5 µM (inactive)

Structure (SMILES): C=CCOc1ccc(/C=N/Nc2ccccn2)cc1OC
- IC50 [4]: > 67.5 µM (inactive)
- IC50 (cells [5]): > 67.5 µM (inactive)

Structure (SMILES): COc1ccc(NC(=O)N2CC(=O)N3[C@@H](CO)[C@@H](c4ccc(/C=C/c5ccccc5)cc4)[C@@H]3C2)cc1
- AC50 [21]: 7.22 µM (active)
- AC50 [22]: 54.8 µM (active)
- AC50 [23]: 39.1 µM (active)
- AC50 (Paired box protein Pax-8): 5.52 µM (active)

Structure (SMILES): COc1ccc(C#Cc2ccc3c(c2)O[C@H](CN(C)C(=O)CN2CCOCC2)[C@@H](C)CN([C@@H](C)CO)S3(=O)=O)cc1
- AC50 [24]: 43.2 µM (active)

Structure (SMILES): O=S(=O)(CS(=O)(=O)c1ccc(Br)cc1)c1ccc(Br)cc1
- IC50 [25]: > 123 µM (inactive)
- IC50 [26]: 30.4 µM (inactive)

Structure (SMILES): CC(C)N1C[C@H](C)[C@@H](CN(C)C(=O)OC(C)(C)C)Oc2c(NC(=O)c3cccnc3)cccc2C1=O
- IC50 [27]: > 20 µM (inactive)

Structure (SMILES): C[C@H]1CN([C@@H](C)CO)S(=O)(=O)c2ccc(C#CC3CCCCC3)cc2O[C@@H]1CN(C)C
- AC50 [24]: 26.4 µM (active)

Structure (SMILES): N#Cc1cc([N+](=O)[O-])ccc1Oc1cccc(/C=N/NC(=O)c2ccc(Cl)cc2)c1
- IC50 [16]: 32.8 µM (inactive)
- EC50 [28]: 616 nM (active)
- EC50 [29]: 48.5 µM (active)
- EC50 [30]: > 60 µM (not active)
- EC50 [31]: 51.9 µM (active)
